From patent publication US20260042764A1, “COMPOSITIONS AND METHODS FOR INHIBITION OF KRAS” (TheRas, Inc., priority 2022, published 2026)

How the values were obtained:
SW620 cells (KRAS G12V) = experiment: Cell-based pERK HTRF assay in SW620 cell (Biological Example 4); settings: Homo sapiens, SW-620, SW620 (KRAS G12V) cells, pERK HTRF
Summary of the method: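 In SW620 cells grown in RPMI with 10% FBS, a 4 h compound treatment (0.25% DMSO, 9-point curve from 1 μM) preceded lysis. Phospho-ERK levels were then read by time-resolved FRET at 615 nm emission.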

[1] = biological target: T1, Avi-KRAS WT (1-169) GppNHp/RAF1 RBD-3xFLAG (52-151) (Homo sapiens, UniProt P01116); experiment: Raf1-KRAS WT-GppNHP disruption HTRF assay (Biological Example 1); assay type: binding
T1 construct: Avi-KRAS WT (1-169)
Summary of the method: (§1)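 Using HTRF, the loss of KRAS–effector RAF1 complex was quantified in 50 mM Tris pH 7.5 buffer with 100 mM NaCl and 0.1% BSA. The protein step and reagent step ran 1 h each at room temperature. Activity normalized with DMSO taken as 100%.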

GP2d cells (KRAS G12D) = experiment: Cell-based pERK HTRF assay in GP2d cell (Biological Example 2); settings: GP2d, GP2d (KRAS G12D) cells, pERK HTRF
Summary of the method: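 Cells grown in DMEM with 10% FBS were exposed to compound for 60 min at 0.25% DMSO, using a 9-point half-log series starting at 1 μM or 100 nM. Lysates were then mixed with d2 and Eu cryptate antibodies for 4–24 h at room temperature, and pERK was read by HTRF.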

[2] = biological target: T2, Avi-KRAS G12R (1-169) GppNHp/RAF1 RBD-3xFLAG (52-151) (Homo sapiens, UniProt P01116, G12R); experiment: Raf1-KRAS G12R-GppNHP disruption HTRF assay (Biological Example 1); assay type: binding
T2 construct: Avi-KRAS G12R (1-169)
Summary of the method: as §1

[3] = biological target: T3, Avi-KRAS G12V (1-169) GppNHp/RAF1 RBD-3xFLAG (52-151) (Homo sapiens, UniProt P01116, G12V); experiment: Raf1-KRAS G12V-GppNHP disruption HTRF assay (Biological Example 1); assay type: binding
T3 construct: Avi-KRAS G12V (1-169)
Summary of the method: as §1

[4] = biological target: T4, Avi-KRAS G12D (1-169) GppNHp/RAF1 RBD-3xFLAG (52-151) (Homo sapiens, UniProt P01116, G12D); experiment: Raf1-KRAS G12D-GppNHP disruption HTRF assay (Biological Example 1); assay type: binding
T4 construct: Avi-KRAS G12D (1-169)
Summary of the method: as §1

[5] = KRAS WT, GppNHp-loaded, class symbols
[6] = KRAS G12R, GppNHp-loaded, class symbols
[7] = KRAS G12V, GppNHp-loaded, class symbols
[8] = KRAS G12D, GppNHp-loaded, class symbols

T4 sequence (P01116 1-169 isoform P01116-2 G12D): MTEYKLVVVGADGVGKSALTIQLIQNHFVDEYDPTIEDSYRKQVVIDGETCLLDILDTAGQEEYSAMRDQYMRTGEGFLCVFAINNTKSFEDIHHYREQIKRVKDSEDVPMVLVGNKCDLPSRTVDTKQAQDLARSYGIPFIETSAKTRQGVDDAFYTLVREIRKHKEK
T3 sequence (P01116 1-169 isoform P01116-2 G12V): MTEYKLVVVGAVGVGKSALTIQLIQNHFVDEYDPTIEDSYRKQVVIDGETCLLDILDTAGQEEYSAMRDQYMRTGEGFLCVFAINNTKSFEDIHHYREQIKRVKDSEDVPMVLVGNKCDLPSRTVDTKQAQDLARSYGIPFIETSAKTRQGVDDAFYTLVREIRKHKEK
T1 sequence (P01116 1-169 isoform P01116-2): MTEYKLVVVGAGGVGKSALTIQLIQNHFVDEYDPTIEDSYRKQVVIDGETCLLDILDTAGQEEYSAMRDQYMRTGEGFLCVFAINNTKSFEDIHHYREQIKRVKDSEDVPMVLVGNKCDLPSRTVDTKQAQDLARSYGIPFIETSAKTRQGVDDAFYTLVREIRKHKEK
T2 sequence (P01116 1-169 isoform P01116-2 G12R): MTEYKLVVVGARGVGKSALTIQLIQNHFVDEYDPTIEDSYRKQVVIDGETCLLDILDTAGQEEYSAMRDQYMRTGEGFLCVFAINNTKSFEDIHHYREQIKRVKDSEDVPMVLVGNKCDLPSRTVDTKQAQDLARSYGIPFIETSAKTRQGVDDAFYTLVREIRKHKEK

| IC50 (SW620 cells (KRAS G12V); class symbols) [nM] | IC50 [1, 5] [nM] | IC50 (GP2d cells (KRAS G12D); class symbols) [nM] | IC50 [2, 6] [nM] | IC50 [3, 7] [nM] | IC50 [4, 8] [nM] | IC50 (SW620 cells (KRAS G12V)) [nM] | IC50 ([1]; KRAS WT-GppNHp/RAF1 RBD HTRF) [nM] | IC50 (GP2d cells (KRAS G12D)) [nM] | IC50 ([2]; KRAS G12R-GppNHp/RAF1 RBD HTRF) [nM] | IC50 ([3]; KRAS G12V-GppNHp/RAF1 RBD HTRF) [nM] | IC50 ([4]; KRAS G12D-GppNHp/RAF1 RBD HTRF) [nM] | Compound |
| --- | --- | --- | --- | --- | --- | --- | --- | --- | --- | --- | --- | --- |
| < 100 | < 100 | < 100 | < 100 | < 100 | < 100 | – | – | – | – | – | – | CCN(c1nc(OC[C@@]23CCCN2C[C@H](F)C3)nc2c(F)c(-c3ccc(F)c4sc(N)c(C#N)c34)c(C(F)(F)F)cc12)[C@H]1CCN(C(=O)OC2CCN(C(C)=O)CC2)C1 (atropisomer, axis not shown) [Compound 720] |
| < 100 | 100 to 1000 | < 100 | 100 to 1000 | 100 to 1000 | 100 to 1000 | – | – | – | – | – | – | CN(C)C(=O)c1nn2c(c1C1CC1)CN(c1nc(OCC34CCCN3CC(F)C4)nc3c(F)c(-c4ccc(F)c5sc(N)c(C#N)c45)c(C(F)(F)F)cc13)CC2 (stereo not drawn) [Compound 738] |
| – | – | – | – | – | – | < 100 | 100 to 1000 | < 100 | 100 to 1000 | 100 to 1000 | 100 to 1000 | CN(c1nc(OC[C@@]23CCCN2C[C@H](F)C3)nc2c(F)c(-c3ccc(F)c4sc(N)c(C#N)c34)c(C(F)(F)F)cc12)[C@@H]1CC(=O)N2CCC[C@H]12 [Compound 479] |
| – | – | – | – | – | – | < 100 | 1000 to 10000 | < 100 | 100 to 1000 | 1000 to 10000 | 100 to 1000 | N#Cc1c(N)sc2c(F)ccc(-c3c(C(F)(F)F)cc4c(N5CCc6oncc6C5)nc(OC[C@@]56CCCN5C[C@H](F)C6)nc4c3F)c12 [Compound 507] |
| – | – | – | – | – | – | < 100 | 100 to 1000 | < 100 | 1000 to 10000 | 1000 to 10000 | 100 to 1000 | CCC(=O)N1CC[C@@H](N(C)c2nc(OC[C@@]34CCCN3C[C@H](F)C4)nc3c(F)c(-c4ccc(F)c5sc(N)c(C#N)c45)c(C(F)(F)F)cc23)[C@@H]1C [Compound 299] |
| < 100 | 100 to 1000 | < 100 | 100 to 1000 | 100 to 1000 | 100 to 1000 | – | – | – | – | – | – | N#Cc1c(N)sc2c(F)ccc(-c3c(C(F)(F)F)cc4c(N5CCn6nc(C(=O)N7CCC7)cc6C5)nc(OCC56CCCN5CC(F)C6)nc4c3F)c12 (stereo not drawn) [Compound 626] |
| < 100 | < 100 | < 100 | < 100 | < 100 | < 100 | – | – | – | – | – | – | CCN(c1nc(OC[C@@]23CCCN2C[C@H](F)C3)nc2c(F)c(-c3ccc(F)c4sc(N)c(C#N)c34)c(C(F)(F)F)cc12)[C@H]1C[C@@H]2CCC(=O)N2C1 (atropisomer, axis not shown) [Compound 628] |
| – | – | – | – | – | – | 100 to 1000 | 1000 to 10000 | 100 to 1000 | 1000 to 10000 | 1000 to 10000 | 1000 to 10000 | N#Cc1c(N)sc2c(F)ccc(-c3c(C(F)(F)F)cc4c(N5CCc6[nH]ncc6C5)nc(OCC56CCCN5CC(F)C6)nc4c3F)c12 (stereo not drawn) [Compound 449] |
| < 100 | < 100 | < 100 | < 100 | < 100 | < 100 | – | – | – | – | – | – | CCN(c1nc(OC[C@@]23CCCN2C[C@H](F)C3)nc2c(F)c(-c3ccc(F)c4sc(N)c(C#N)c34)c(C(F)(F)F)cc12)[C@H]1CCN(C(=O)OC2CC2)C1 (atropisomer, axis not shown) [Compound 599] |
| < 100 | < 100 | < 100 | < 100 | < 100 | < 100 | – | – | – | – | – | – | CCN(c1nc(OC[C@@]23CCCN2C[C@H](F)C3)nc2c(F)c(-c3ccc(F)c4sc(N)c(C#N)c34)c(C(F)(F)F)cc12)[C@H]1CCN(C(=O)c2cnsc2)C1 (atropisomer, axis not shown) [Compound 729] |
| < 100 | 100 to 1000 | < 100 | < 100 | 100 to 1000 | < 100 | – | – | – | – | – | – | CCN(c1nc(OCC23CCCN2CC(F)C3)nc2c(F)c(-c3ccc(F)c4sc(N)c(C#N)c34)c(C(F)(F)F)cc12)C1CCN(C(=O)c2ncon2)C1 (stereo not drawn) [Compound 754] |
